How the values were obtained:
[1] = test system: HAP1 MTAP-deleted; assay: SDMA in-cell western assay, HAP1 MTAP-deleted cell line; type: cell-based; details: for IC50: Homo sapiens, HAP1 MTAP-deleted cell line; for MTAP Intact/Deleted Ratio: IC50 ratio HAP1 MTAP-intact / HAP1 MTAP-deleted
Method in brief: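 MTAP-null HAP1 cells, the deleted member of an isogenic pair with endogenously MTAP-expressing HAP1, are treated with compound. SDMA is then quantified by in-cell western and an IC50 is calculated.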

[2] = molecular target: T1, PRMT5 (Homo sapiens, UniProt O14744); assay: PRMT5 IC50 assay in the presence of MTA as cofactor; type: biochemical; details: for IC50: PRMT5, MTA as cofactor; for SAM/MTA Ratio: ratio between the Ki in the presence of SAM and the Ki in the presence of MTA
T1 construct: purchased Viva (custom protein)
Method in brief: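 IC50 against PRMT5 determined with SAM as cofactor, with no cofactor, and with MTA as cofactor. Ki derived as IC50/1.5 for the SAM assay and IC50/13.5 for the MTA assay; SAM Ki to MTA Ki ratio also reported.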

[3] = molecular target: T1, PRMT5; assay: PRMT5 IC50 assay with no cofactor; type: biochemical
Method in brief: (§1)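 Cofactor-free, SAM and MTA formats; IC50 μM; Ki = IC50/1.5 for SAM, IC50/13.5 for MTA.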

[4] = test system: HAP1 MTAP-intact; assay: SDMA in-cell western assay, HAP1 MTAP-intact cell line; type: cell-based; details: Homo sapiens
Method in brief: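 Cells from two matched HAP1 lines, MTAP-null and MTAP-expressing at endogenous levels, are treated with compound. SDMA is then quantified by in-cell western and an IC50 is calculated for each line.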

[5] = molecular target: T1, PRMT5; assay: PRMT5 IC50 assay in the presence of SAM as cofactor; type: biochemical
Method in brief: as §1

T1 sequence (O14744 whole entry): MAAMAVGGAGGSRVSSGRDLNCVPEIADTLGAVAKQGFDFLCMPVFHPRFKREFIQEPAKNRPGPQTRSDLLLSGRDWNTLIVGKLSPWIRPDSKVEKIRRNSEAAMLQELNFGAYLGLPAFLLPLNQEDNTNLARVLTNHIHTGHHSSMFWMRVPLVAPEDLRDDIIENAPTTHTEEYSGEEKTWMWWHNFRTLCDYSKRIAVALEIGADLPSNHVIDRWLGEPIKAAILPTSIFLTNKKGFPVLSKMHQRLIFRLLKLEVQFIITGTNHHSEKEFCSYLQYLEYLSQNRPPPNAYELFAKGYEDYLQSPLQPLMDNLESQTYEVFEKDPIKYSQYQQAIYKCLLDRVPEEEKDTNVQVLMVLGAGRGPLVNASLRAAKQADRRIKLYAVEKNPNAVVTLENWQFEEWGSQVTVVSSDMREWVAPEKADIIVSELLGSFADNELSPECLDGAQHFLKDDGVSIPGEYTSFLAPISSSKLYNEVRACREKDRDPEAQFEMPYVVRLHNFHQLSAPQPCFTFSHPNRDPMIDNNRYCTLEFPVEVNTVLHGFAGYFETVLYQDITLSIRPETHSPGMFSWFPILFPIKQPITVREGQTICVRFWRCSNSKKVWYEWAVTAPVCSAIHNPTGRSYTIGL
T1 sequence (Q9BQA1 whole entry partner): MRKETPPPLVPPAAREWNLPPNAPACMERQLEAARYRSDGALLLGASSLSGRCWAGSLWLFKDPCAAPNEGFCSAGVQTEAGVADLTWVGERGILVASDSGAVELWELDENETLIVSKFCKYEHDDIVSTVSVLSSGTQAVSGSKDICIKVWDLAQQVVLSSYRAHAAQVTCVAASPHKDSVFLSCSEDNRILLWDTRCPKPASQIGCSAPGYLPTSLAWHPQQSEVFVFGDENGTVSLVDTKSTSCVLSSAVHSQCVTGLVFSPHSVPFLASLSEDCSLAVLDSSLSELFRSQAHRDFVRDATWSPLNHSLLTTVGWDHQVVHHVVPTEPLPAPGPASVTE

SMILES | IC50 [1] [nM] | IC50 [2] [nM] | IC50 [3] [nM] | IC50 [4] [nM] | IC50 [5] [nM] | MTAP Intact/Deleted Ratio [1] | SAM/MTA Ratio [2]
CC(C)C(=O)N1CCN(c2cc(C(=O)NC[C@H](O)CN3CCc4c(ccc(OCc5cnco5)c4Cl)C3)cc(NC3CCC3)n2)CC1 [Compound 466] | < 1000 | 50 to 500 | 500 to 5000 | < 1000 | 50 to 500 | C* (an IC50 ratio of less than 3 fold between the IC50 in the HAP1 MTAP-intact cell line and the HAP1 MTAP-deleted cell line) | A (a Ki ratio greater than or equal to 10 fold between the Ki in the presence of SAM and the Ki in the presence of MTA)
Cc1ncoc1COc1ccc2c(n1)CCN(C[C@@H](O)CNC(=O)c1ccnc(NC3CCC3)c1)C2 [Compound 467, 2-(cyclobutylamino)-N-[(2S)-2-hydroxy-3-[2-[(4-methyloxazol-5-yl)methoxy]-7,8-dihydro-5H-1,6-naphthyridin-6-yl]propyl]pyridine-4-carboxamide] | 1000 to 10000 | 50 to 500 | ≥ 5000 | ≥ 10000 | 50 to 500 | C* (an IC50 ratio of less than 3 fold between the IC50 in the HAP1 MTAP-intact cell line and the HAP1 MTAP-deleted cell line) | A (a Ki ratio greater than or equal to 10 fold between the Ki in the presence of SAM and the Ki in the presence of MTA)
O=C(NC[C@H](O)CN1CCc2cc(OCc3cnco3)ccc2C1)c1ccnc(NC2CN(C(=O)C3CCC3)C2)c1 [Compound 468, 2-[[1-(cyclobutanecarbonyl)azetidin-3-yl]amino]-N-[(2S)-2-hydroxy-3-[6-(oxazol-5-ylmethoxy)-3,4-dihydro-1H-isoquinolin-2-yl]propyl]pyridine-4-carboxamide] | 1000 to 10000 | 50 to 500 | 500 to 5000 | 1000 to 10000 | 50 to 500 | B* (an IC50 ratio greater than or equal to 3 fold but lower than 10 fold between the IC50 in the HAP1 MTAP-intact cell line and the HAP1 MTAP-deleted cell line) | A (a Ki ratio greater than or equal to 10 fold between the Ki in the presence of SAM and the Ki in the presence of MTA)
CCC(=O)N1CC(Nc2cc(C(=O)NC[C@H](O)CN3CCc4cc(OCc5cnco5)ccc4C3)ccn2)C1 [Compound 469, N-[(2S)-2-hydroxy-3-[6-(oxazol-5-ylmethoxy)-3,4-dihydro-1H-isoquinolin-2-yl]propyl]-2-[(1-propanoylazetidin-3-yl)amino]pyridine-4-carboxamide] | 1000 to 10000 | 50 to 500 | 500 to 5000 | 1000 to 10000 | 50 to 500 | C* (an IC50 ratio of less than 3 fold between the IC50 in the HAP1 MTAP-intact cell line and the HAP1 MTAP-deleted cell line) | A (a Ki ratio greater than or equal to 10 fold between the Ki in the presence of SAM and the Ki in the presence of MTA)
CCCC(=O)N1CCC(Nc2cc(C(=O)NC[C@H](O)CN3CCc4c(ccc(OCc5cnco5)c4C)C3)ccn2)CC1 [Compound 470, (S)-2-((1-butyrylpiperidin-4-yl)amino)-N-(2-hydroxy-3-(5-methyl-6-(oxazol-5-ylmethoxy)-3,4-dihydroisoquinolin-2(1H)-yl)propyl)isonicotinamide] | < 1000 | 50 to 500 | 500 to 5000 | ≥ 10000 | 50 to 500 | A* (an IC50 ratio greater than or equal to 10 fold between the IC50 in the HAP1 MTAP-intact cell line and the HAP1 MTAP-deleted cell line) | A (a Ki ratio greater than or equal to 10 fold between the Ki in the presence of SAM and the Ki in the presence of MTA)
CC(=O)N1CCC(Nc2cc(C(=O)NC[C@H](O)CN3CCc4cc(OCc5cnco5)ccc4C3)ccn2)CC1 [Compound 471, 2-[(1-acetyl-4-piperidyl)amino]-N-[(2S)-2-hydroxy-3-[6-(oxazol-5-ylmethoxy)-3,4-dihydro-1H-isoquinolin-2-yl]propyl]pyridine-4-carboxamide] | 1000 to 10000 | 50 to 500 | 500 to 5000 | 1000 to 10000 | 50 to 500 | B* (an IC50 ratio greater than or equal to 3 fold but lower than 10 fold between the IC50 in the HAP1 MTAP-intact cell line and the HAP1 MTAP-deleted cell line) | A (a Ki ratio greater than or equal to 10 fold between the Ki in the presence of SAM and the Ki in the presence of MTA)
Cc1c(OCc2cnco2)ccc2c1CCN(C[C@@H](O)CNC(=O)c1ccnc(NC3CC4(CC4)C3)c1)C2 [Compound 472] | 1000 to 10000 | 50 to 500 | 500 to 5000 | ≥ 10000 | 50 to 500 | B* (an IC50 ratio greater than or equal to 3 fold but lower than 10 fold between the IC50 in the HAP1 MTAP-intact cell line and the HAP1 MTAP-deleted cell line) | A (a Ki ratio greater than or equal to 10 fold between the Ki in the presence of SAM and the Ki in the presence of MTA)

Now from value to compound, other results behind:

IC50 [1] [nM] | IC50 [2] [nM] | IC50 [3] [nM] | IC50 [4] [nM] | IC50 [5] [nM] | SMILES | MTAP Intact/Deleted Ratio [1] | SAM/MTA Ratio [2]
≥ 10000 | 50 to 500 | 500 to 5000 | ≥ 10000 | 50 to 500 | O=C(NC[C@H](O)CN1CCc2c(ccc(OCc3cnco3)c2Cl)C1)c1cc(NC2CCC2)nc(N2CCNCC2)c1 [Compound 464, (S)—N-(3-(5-chloro-6-(oxazol-5-ylmethoxy)-3,4-dihydroisoquinolin-2(1H)-yl)-2-hydroxypropyl)-2-(cyclobutylamino)-6-(piperazin-1-yl)isonicotinamide] | C* (an IC50 ratio of less than 3 fold between the IC50 in the HAP1 MTAP-intact cell line and the HAP1 MTAP-deleted cell line) | A (a Ki ratio greater than or equal to 10 fold between the Ki in the presence of SAM and the Ki in the presence of MTA)
1000 to 10000 | 50 to 500 | ≥ 5000 | ≥ 10000 | 50 to 500 | CCCN(C)c1nc(NC2COC2)cc(C(=O)NC[C@H](O)CN2CCc3c(ccc(OCc4ocnc4C)c3C)C2)n1 [Compound 465, N-[(2K)-2-hydroxy-3-{5-methyl-6-[(4-methyl-1,3-oxazol-5-yl)methoxy]-1,2,3,4-tetrahydroisoquinolin-2-yl}propyl]-2-[methyl(propyl)amino]-6-[(oxetan-3-yl)amino]pyrimidine-4-carboxamide] | B* (an IC50 ratio greater than or equal to 3 fold but lower than 10 fold between the IC50 in the HAP1 MTAP-intact cell line and the HAP1 MTAP-deleted cell line) | A (a Ki ratio greater than or equal to 10 fold between the Ki in the presence of SAM and the Ki in the presence of MTA)
1000 to 10000 | 50 to 500 | 500 to 5000 | ≥ 10000 | 50 to 500 | Cc1c(OCc2cnco2)ccc2c1CCN(C[C@@H](O)CNC(=O)c1ccnc(NC3CC4(CCC4)C3)c1)C2 [Compound 473, (S)—N-(2-hydroxy-3-(5-methyl-6-(oxazol-5-ylmethoxy)-3,4-dihydroisoquinolin-2(1H)-yl)propyl)-2-(spiro[3.3]heptan-2-ylamino)isonicotinamide] | C* (an IC50 ratio of less than 3 fold between the IC50 in the HAP1 MTAP-intact cell line and the HAP1 MTAP-deleted cell line) | A (a Ki ratio greater than or equal to 10 fold between the Ki in the presence of SAM and the Ki in the presence of MTA)

Reference: US11986471B2, “Compounds and methods of use” (Tango Therapeutics, Inc., priority 2018, dated 2024)
